Patent US20240400584A1, “COMPOUNDS AND METHODS FOR MODULATING SPLICING” (REMIX THERAPEUTICS INC., priority 2021, published 2024)

Legend:
HTT [1] = test: Gene panel canonical junction qPCR assay, HTT CJ mRNA (Table 7); type: cell-based, human; settings: Homo sapiens, read-out: HTT CJ mRNA decrease IC50
How it was run: (§1)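 Canonical-junction transcript decrease reported as IC50 from a 4-parameter logistic fit of percentage response, derived from 2^(−ΔΔCt) versus housekeeper (GAPDH/GUSB/PPIA) and DMSO control using preset ΔCt windows. Readout by cDNA synthesis and qPCR with exon-junction-overlapping probesets in compound-treated K562 or A673 cells.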

MYB [2] = test: Gene panel canonical junction qPCR assay, MYB CJ mRNA (Table 7); type: cell-based; settings: Homo sapiens, read-out: MYB CJ mRNA decrease IC50
How it was run: as §1

MYB [3] = test: RT-qPCR splicing assay, MYB AJ/CJ mRNA; type: cell-based; settings: Homo sapiens, A673 or K562 cells, 24 hours; for IC50: decrease in canonical junction mRNA; for AC50: increase in alternative junction mRNA
How it was run: (§2)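 A673 or K562 cells were treated for 24 h at 37° C with an 11-point 3-fold compound series (top 10 uM, DMSO ≤0.25%). Lysates underwent RT-qPCR for the canonical (CJ) and alternative-exon (AJ) junctions, normalized to GAPDH, GUSB or PPIA, then to DMSO (ΔΔCt), giving RQ and percentage response.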

SMN2 = test: Gene panel canonical junction qPCR assay, SMN2 CJ mRNA (Table 7); type: cell-based; settings: Homo sapiens, read-out: SMN2 CJ mRNA decrease IC50
How it was run: as §1

Target C = test: Gene panel canonical junction qPCR assay, Target C CJ mRNA (Table 7); type: cell-based, human; settings: Homo sapiens, read-out: Target C CJ mRNA decrease IC50
How it was run: as §1

HTT [4] = test: RT-qPCR splicing assay, HTT AJ/CJ mRNA; type: cell-based, human; settings: Homo sapiens, 24 h, A673 or K562 cells; for IC50: decrease in canonical junction mRNA; for AC50: increase in alternative junction mRNA
How it was run: as §2

Compound	IC50 (HTT [1]) [µM]	IC50 (MYB [2]) [µM]	IC50 (MYB [3]) [µM]	AC50 (MYB [3]) [µM]	IC50 (SMN2) [µM]	IC50 (Target C) [µM]	IC50 (HTT [4]) [µM]	AC50 (HTT [4]) [µM]
CC(C)(C)N[C@H]1CCN(c2ccc3c(n2)OCc2cc(-c4cn[nH]c4)ccc2-3)C1 [Compound 258, (3S)—N-tert-butyl-1-[8-(1H-pyrazol-4-yl)-6H-isochromeno[3,4-b]pyridin-3-yl]pyrrolidin-3-amine]	0.1 to 1	1 to 10	1 to 10	0.1 to 1	0.1 to 1	0.1 to 1	0.1 to 1	0.1 to 1
Fc1cc2c(cc1-c1cn[nH]c1)COc1nc(O[C@@H]3C[C@H]4CC[C@@H](C3)N4)ccc1-2 [Compound 260]	< 0.1	0.1 to 1	0.1 to 1	< 0.1	< 0.1	0.1 to 1	< 0.1	< 0.1
Cn1ncc(-c2ccc3c(c2)COc2nc(OC4CC5CC(F)(F)C(C4)N5)ccc2-3)cc1=O (stereo not shown) [Compound 261, 5-[3-({6,6-difluoro-8-azabicyclo[3.2.1]octan-3-yl}oxy)-6H-isochromeno[3,4-b]pyridin-8-yl]-2-methylpyridazin-3-one]	> 10	> 10	> 10	> 10	> 10	> 10	> 10	> 10
CC(C)Oc1cc(-c2ccc3c(c2)COc2nc(N4CCC(NC(C)(C)C)C4)ccc2-3)cnn1 (stereo not shown) [Compound 263, N-tert-butyl-1-[8-(6-isopropoxypyridazin-4-yl)-6H-isochromeno[3,4-b]pyridin-3-yl]pyrrolidin-3-amine]	> 10	> 10	> 10	> 10	> 10	> 10	> 10	> 10
COc1cc(-c2ccc3c(c2)COc2nc(N4CCC(NCC5CC5)C4)ccc2-3)cnn1 (stereo not shown) [Compound 264, N-(cyclopropylmethyl)-1-[8-(6-methoxypyridazin-4-yl)-6H-isochromeno [3,4-b]378yrrolid-3-yl]378yrrolidine-3-amine]	0.1 to 1	1 to 10	1 to 10	1 to 10	0.1 to 1	0.1 to 1	0.1 to 1	0.1 to 1
COc1cc(-c2ccc3c(c2)COc2nc(N4CC[C@@H](NC(C)(C)C)C4)ccc2-3)cnn1 [Compound 265, (3R)—N-tert-butyl-1-[8-(6-methoxypyridazin-4-yl)-6H-isochromeno[3,4-b]376yrrolid-3-yl]376yrrolidine-3-amine]	< 0.1	0.1 to 1	0.1 to 1	< 0.1	< 0.1	< 0.1	< 0.1	< 0.1
CC(C)(C)NC1CCN(c2ccc3c(n2)OCc2cc(-c4cnnc(C5CC5)c4)ccc2-3)C1 (stereo not shown) [Compound 266, N-tert-butyl-1-[8-(6-cyclopropylpyridazin-4-yl)-6H-isochromeno[3,4-b]pyridin-3-yl]pyrrolidin-3-amine]	> 10	> 10	> 10	> 10	1 to 10	> 10	> 10	> 10
CCOc1cc(-c2ccc3c(c2)COc2nc(N4CCC(NC(C)(C)C)C4)ccc2-3)cnn1 (stereo not shown) [Compound 267, N-tert-butyl-1-[8-(6-ethoxypyridazin-4-yl)-6H-isochromeno [3,4-b]pyridin-3-yl]pyrrolidin-3-amine]	0.1 to 1	> 10	> 10	> 10	0.1 to 1	1 to 10	0.1 to 1	1 to 10
CC(C)(C)NC1CCN(c2ccc3c(n2)OCc2cc(-c4cnnc(OC5CC5)c4)ccc2-3)C1 (stereo not shown) [Compound 268, N-tert-butyl-1-[8-(6-cyclopropoxypyridazin-4-yl)-6H-isochromeno[3,4-b]pyridin-3-yl]pyrrolidin-3-amine]	1 to 10	> 10	> 10	> 10	1 to 10	> 10	1 to 10	1 to 10
COc1cc(-c2ccc3c(c2)COc2nc(N4CC[C@H](NC(C)(C)C)C4)ccc2-3)cnn1 [Compound 269, (3S)—N-tert-butyl-1-[8-(6-methoxypyridazin-4-yl)-6H-isochromeno[3,4-b]pyridin-3-yl]pyrrolidin-3-amine]	< 0.1	0.1 to 1	0.1 to 1	1 to 10	< 0.1	0.1 to 1	< 0.1	0.1 to 1
COc1cc(-c2ccc3c(c2)COc2nc(N4CC[C@H](N(C)C(C)(C)C)C4)ccc2-3)cnn1 [Compound 270, (3S)—N-tert-butyl-1-[8-(6-methoxypyridazin-4-yl)-6H-isochromeno[3,4-b]pyridin-3-yl]-N-methylpyrrolidin-3-amine]	< 0.1	0.1 to 1	0.1 to 1	0.1 to 1	< 0.1	0.1 to 1	< 0.1	< 0.1
COc1cc(-c2ccc3c(c2)COc2nc(N4CC[C@@H](N(C)C(C)(C)C)C4)ccc2-3)cnn1 [Compound 271, (3R)—N-tert-butyl-1-[8-(6-methoxypyridazin-4-yl)-6H-isochromeno [3,4-b]377yrrolid-3-yl]-N-methylpyrrolidin-3-amine]	< 0.1	0.1 to 1	0.1 to 1	0.1 to 1	< 0.1	0.1 to 1	< 0.1	< 0.1
CC(C)(C)NC1CCN(c2ccc3c(n2)OCc2cc(-c4ccnnc4)ccc2-3)C1 (stereo not shown) [Compound 272, N-tert-butyl-1-[8-(pyridazin-4-yl)-6H-isochromeno[3,4-b]pyridin-3-yl]pyrrolidin-3-amine]	1 to 10	> 10	> 10	> 10	1 to 10	> 10	1 to 10	1 to 10
COc1cc(-c2ccc3c(c2)COc2nc(N(C)C4CC(C)(C)NC(C)(C)C4)ncc2-3)cnn1 [Compound 276, N-[8-(6-methoxypyridazin-4-yl)-6H-isochromeno[3,4-d]pyrimidin-3-yl]-N,2,2,6,6-pentamethylpiperidin-4-amine]	0.1 to 1	1 to 10	1 to 10	1 to 10	0.1 to 1	0.1 to 1	0.1 to 1	0.1 to 1
CN(c1ncc2c(n1)OCc1cc(-c3cnnc(O)c3)ccc1-2)C1CC(C)(C)NC(C)(C)C1 [Compound 277, 5-{3-[methyl(2,2,6,6-tetramethylpiperidin-4-yl)amino]-6H-isochromeno[3,4-d]pyrimidin-8-yl}pyridazin-3-ol]	0.1 to 1	1 to 10	1 to 10	1 to 10	0.1 to 1	1 to 10	0.1 to 1	0.1 to 1
COc1cc(-c2ccc3c(c2)COc2nc(N4CC[C@@H](NC(C)(C)C)C4)ncc2-3)cnn1 [Compound 278]	< 0.1	0.1 to 1	0.1 to 1	0.1 to 1	< 0.1	0.1 to 1	< 0.1	0.1 to 1
COc1cc(-c2ccc3c(c2)COc2nc(N4CC[C@H](NC(C)(C)C)C4)ncc2-3)cnn1 [Compound 279]	0.1 to 1	1 to 10	1 to 10	1 to 10	0.1 to 1	1 to 10	0.1 to 1	0.1 to 1
COc1cc(-c2ccc3c(c2)COc2nc(N4CCC(NC5CCC5)C4)ccc2-3)cnn1 (stereo not shown) [Compound 280, N-cyclobutyl-1-[8-(6-methoxypyridazin-4-yl)-6H-isochromeno[3,4-b]pyridin-3-yl]pyrrolidin-3-amine]	0.1 to 1	1 to 10	1 to 10	0.1 to 1	0.1 to 1	0.1 to 1	0.1 to 1	0.1 to 1
CCC(C)(C)NC1CCN(c2ccc3c(n2)OCc2cc(-c4cnnc(OC)c4)ccc2-3)C1 (stereo not shown) [Compound 281, 1-[8-(6-methoxypyridazin-4-yl)-6H-isochromeno[3,4-b]pyridin-3-yl]-N-(2-methylbutan-2-yl)pyrrolidin-3-amine]	< 0.1	0.1 to 1	0.1 to 1	0.1 to 1	< 0.1	0.1 to 1	< 0.1	< 0.1
COc1cc(-c2ccc3c(c2)COc2nc(N4CCNCC4)ccc2-3)cnn1 [Compound 282, 3-methoxy-5-[3-(piperazin-1-yl)-6H-isochromeno[3,4-b]pyridin-8-yl] pyridazine]	0.1 to 1	0.1 to 1	0.1 to 1	0.1 to 1	0.1 to 1	0.1 to 1	0.1 to 1	0.1 to 1
